Test results taken from article PMC12610573, “New Chlormequat-Based Ionic Liquids as Plant Resistance Inducers” (Molecules, 2025).

Columns and labels:
[1] = test system: radish (Raphanus sativus) sprouts; assay: Phytotoxicity test on radish sprouts; type: in vivo; conditions: for Reduction in Sprout Mass: compared with untreated control; for Mass of 25 Sprouts: radish, 5 days, UTC 3.09 g; for Phytotoxic effect on radish sprout mass: versus control
Description: Twenty five seeds of radish (Raphanus sativus) were placed on a filter tissue in a Petri dish. […] Then, sprouts were weighted. All variants of treatment were tested together, with 3 replications (plates) in each of 2 cycles performed. Results were subjected to statistical analysis as described in Section 4.8.
(§1) Statistical significance of the effect of the treatments of plants with tested compounds on the phytotoxicity and SAR induction was assessed with the ANOVA test performed using the Statistica program StatSoft with software version 9.1 (StatSoft Sp. z o.o., Kraków, Poland). The statistical assumptions of normality and homogeneity of variances were verified prior to conducting the ANOVA tests. Differences between the means were estimated with Tukey’s HSD test at the significance level of p = 0.05.

[2] = test system: Tobamovirus tabaci (tobacco mosaic virus, TMV) on Nicotiana tabacum cv. Xanthi; assay: SAR induction assay: necrotic area after TMV inoculation of sprayed tobacco; type: in vivo; conditions: for SAR Induction (percentage of necrotic area on leaves): TMV inoculation after 7 days, read 7 days later, UTC 34.54; for Reduction in Necrotic Area / pest or weed control at 125 µg/mL / pest or weed control at 250 µg/mL: compared with untreated control plants; for Percentage of necrotic spot coverage (leaf shown in supplementary figure): single leaf image; for pest or weed control at 125 µg/mL / pest or weed control at 250 µg/mL: topical, read-out: Reduction in Necrotic Area
Description: Plants of Nicotiana tabacum cv. Xanthi were grown under greenhouse conditions at 25 °C and 50% relative humidity, under natural daylight during the May–August growing season, with a natural photoperiod. The plants were sprayed with solutions containing the tested compounds.
In all experiments, the TMV SL-1 isolate Tobamovirus (TMV) was used. To obtain a viral inoculum, Nicotiana tabacum cv. Samsun plants were sap-inoculated with previously virus-infected plant material. After the appearance of disease symptoms on the infected plants (leaf mosaic), the virus was isolated by sucrose density gradient centrifugation with 0.01 M Tris-HCl, pH 7.0, to prepare the infectious inoculum. The concentration of virus in the obtained preparation was determined spectrophotometrically. The samples of TMV were stored at −20 °C until use.
The tested active substances at a given concentration were sprayed on tobacco plants with three fully developed leaves. The volume of working solution used was equal to 10 mL per plant. The compounds were dissolved in a water/propylene glycol solution (95/5, v/v). The plants of the untreated control variant were sprayed with a water/propylene glycol solution (95/5, v/v) that was used for the preparation of solutions of the tested compounds. After seven days, the plants were mechanically inoculated using purified viral preparations (0.01 ng/mL as described in [34]).
The plants were inoculated with the TMV inoculum at a concentration of 3.8 × 10^−4 ng per leaf. For each variant of treatment, 3 plants were sprayed, and 3 leaves of each plant were analyzed. The entire experiment was performed in 2 replicates. Necrotic areas on the leaves were determined using ImageJ software.
The surface of a leaf or an area with necrotic spots is represented by a set of pixels in the image, which are counted by the program. Reduction in necrotic area (ISAR) is expressed by the following formula:(1) ISAR=100−(At/Ac∗100) where At is the ratio of the area of necrotic spots caused by viral infection that appeared on the leaf treated with the test substance to the whole area of the leaf; Ac is the ratio of the area of the necrotic spots caused by viral infection that appeared on the leaf of the control plant to the whole area of the leaf.
as §1

[3] = Thermogravimetric analysis (TGA), thermal stability; conditions: TGA under nitrogen, 10 °C/min; for Thermal Stability T5%onset: 5% weight loss onset; for Thermal Stability Tonset: decomposition onset
Description: TGA was performed on a TGA Q50 (Texas Instruments, Dallas, TX, USA) under nitrogen. Samples (5–10 mg) were heated from 25 °C to 500 °C at 10 °C/min with an isothermal step at 85 °C for 10 min. T5%onset and Tonset values were recorded.

[4] = Solubility tests in representative solvents (Vogel protocol); conditions: 25 °C; for Solubility in Hexane: Snyder polarity index 0.0; for Solubility in Toluene: Snyder polarity index 2.3; for Solubility in Isopropanol: Snyder polarity index 4.3; for Solubility in Acetone: Snyder polarity index 5.1; for Solubility in Methanol: Snyder polarity index 6.6; for Solubility in Water: Snyder polarity index 9.0
Description: The solubilities of the prepared ILs in ten representative solvents were determined according to the protocols from Vogel’s Textbook of Practical Organic Chemistry. The solvents chosen for the study were arranged in order of descending value of their Snyder polarity index: water—9.0, methanol—6.6, acetone—5.1, isopropanol—4.3, toluene—2.3, and hexane—0.0.

Compound | Reduction in Sprout Mass ([1]; 125 mg/L) | Mass of 25 Sprouts ([1]; 125 mg/L) | Reduction in Sprout Mass ([1]; 250 mg/L) | Mass of 25 Sprouts ([1]; 250 mg/L) | SAR Induction (percentage of necrotic area on leaves) ([2]; 125 mg/L spray) | Reduction in Necrotic Area ([2]; 125 mg/L) | SAR Induction (percentage of necrotic area on leaves) ([2]; 250 mg/L spray) | Reduction in Necrotic Area ([2]; 250 mg/L) | Thermal Stability T5%onset [3] | Thermal Stability Tonset [3] | Solubility in Hexane [4] | Solubility in Toluene [4] | Solubility in Isopropanol [4] | Solubility in Acetone [4] | Solubility in Methanol [4] | Solubility in Water [4] | Percentage of necrotic spot coverage (leaf shown in supplementary figure) ([2]; 125 mg/L) | Percentage of necrotic spot coverage (leaf shown in supplementary figure) ([2]; 250 mg/L) | pest or weed control at 125 µg/mL ([2]; 125 mg/L) | pest or weed control at 250 µg/mL ([2]; 250 mg/L) | other results
C[N+](C)(C)CCCl.O=C([O-])c1cccnc1 [[CC][Nic]] | 8.20% | 2.84 hi B g | 26.16% | 2.28 hi A g | 19.70 de B % | 43.0% | 11.52 def A % | 66.7% | 166.9 °C | 89.9 °C |  |  |  |  |  |  |  |  |  |  | Phytotoxic effect on radish sprout mass ([1]; 125 mg/L): no phytotoxic effect; Phytotoxic effect on radish sprout mass ([1]; 250 mg/L): significant decrease in the radish sprout mass
C[N+](C)(C)CCCl.O=C([O-])c1cccc(Cl)c1O [[CC][3-ClSal]] | 15.97% | 2.60 fgh D | 36.68% | 1.96 ef C g | 2.52 a AB % | 92.7% | 1.39 a A % | 96.0% | 196.2 °C | 136.1 °C | − (insoluble) | − (insoluble) | +/− (of limited solubility) | − (insoluble) | + (soluble) | +/− (of limited solubility) | 0.79% | 0.27% |  |  | 
O=C(O)c1ccccc1O [Salicylic acid] | 29.77% | 2.17 cd B g | 63.27% | 1.14 bc A g | 26.60 fg C % |  | 25.06 g C % |  |  |  |  |  |  |  |  |  | 23.67% | 19.86% | 23% | 27.4% | 
O=C(O)c1cccnc1 [Nicotinic acid] | 10.79% | 2.76 gh B |  | 2.63 j AB g | 27.69 fg C % |  | 22.07 g B % |  |  |  |  |  |  |  |  |  |  |  | 19.8% | 36.1% | 
C[N+](C)(C)CCCl.O=C([O-])c1ccc(Cl)cc1O [[CC][4-ClSal]] |  | 2.84 hi D g | 19.63% | 2.48 ij C g | 12.47 bc B % | 63.9% | 7.85 bcde A % | 77.3% | 205.3 °C | 137.2 °C | − (insoluble) | − (insoluble) | +/− (of limited solubility) | − (insoluble) | + (soluble) | +/− (of limited solubility) |  |  |  |  | 
O=C(O)c1cc(Cl)nc(Cl)c1 [2,6-dichloroisonicotinic acid] | 40.29% | 1.85 ab B g | 54.31% | 1.41 d A g | 18.15 cd B % |  | 14.90 f AB % |  |  |  |  |  |  |  |  |  |  |  | 47.5% | 56.9% | 
